Earlier results in patent US4431807A, “4-Methyl-5-(unsubstituted and substituted phenoxy)-6-methoxy-8-(aminoalkylamino)quinolines” (priority 1981, dated 1984).
Like-named read-outs stand apart in the source and are kept apart here.

Columns and labels:
Plasmodium berghei = conditions: cited from earlier work
Plasmodium cynomolgi = conditions: cited from earlier work; for Radical curative activity relative to primaquine: prior art compounds

| SMILES | Δ MST (Plasmodium berghei; 80 mg/kg, 5 mice, Table I) | Δ MST (Plasmodium berghei; 160 mg/kg, 5 mice, Table I) | Cures (Plasmodium berghei; 320 mg/kg, 5 mice, Table I) | Cures (Plasmodium berghei; 640 mg/kg, 5 mice, Table I) | Suppressive activity (Plasmodium berghei; 320 and 640 mg/kg) | Suppressive activity relative to mefloquine (Plasmodium berghei; prior art compound) | Radical curative activity relative to primaquine (Plasmodium cynomolgi) | Δ MST (Plasmodium berghei; 320 mg/kg, 5 mice, Table I) | Toxic deaths (Plasmodium berghei; 640 mg/kg, 5 mice, Table I) | Only curative (toxic) dose in suppressive test (Plasmodium berghei; curative only at the toxic dose) | Suppressive activity (Plasmodium berghei; non-toxic dose levels, prior art comparison) | Radical curative activity (Plasmodium cynomolgi; 0.316 mg/kg, prior art comparison) | % cures (radical curative) (Plasmodium cynomolgi; 1.0 mg/kg) |
| --- | --- | --- | --- | --- | --- | --- | --- | --- | --- | --- | --- | --- | --- |
| COc1cc(NC(C)CCCN)c2ncccc2c1Oc1ccc(F)cc1 (stereo not shown) [5-(4-Fluorophenoxy)Primaquine, 5-(4-fluorophenoxy)primaquine] | 7.0 days | 9 days | 5C | 5C | active and non-toxic | distinctly inferior | no more active than primaquine |  |  |  |  |  |  |
| COc1cc(NC(C)CCCN)c2nccc(C)c2c1 (stereo not shown) [4-Methylprimaquine, 4-methylprimaquine] |  | 9 days |  | 3C |  |  | comparable to primaquine and essentially equivalent in efficacy | 10 days | 1T | 640 mg/kg | very weak activity | inactive | 100% |
